From US20040019070A1, “Pyrrole-condensed morphinoid derivatives” (priority 2000, published 2004) come the findings set out here.

In experiment [1] the target is T1, human delta opioid receptor (Homo sapiens, UniProt P41143).
T1 construct: expressed in transfected cells; membranes prepared
Put plainly: radioligand binding assay, [3H]-DADLE, cloned human delta opioid receptor in CHO cells. The procedure:
The activity of the compounds of the present invention as selective delta ligands is determined in radioligand binding assays as described below.
(§1) The activity of the compounds of the present invention as selective delta ligands is determined in radioligand binding assays using cloned human delta, mu and kappa opioid receptors stably expressed in cell lines as described below.
(§2) CHO cells were subjected to stable transfection with cDNA encoding the human delta and mu opioid receptors. Clones were grown in suspension culture in serum free media. Selection was performed by growth in the absence of nucleotides.
(§3) Membranes were prepared as previously described (J. Med. Chem. 1997, 40, 3192 ). The binding of the preferential delta ligand [^3H]-[D-Ala^2,D-Leu^5]-enkephalin (DADLE) was evaluated at its KD concentration (0.7 nM). The binding of the mu ligand [^3H]-DAMGO (Eur. J. Pharmacol., 1989, 166, 213) and of the kappa ligand [^3H]-U69593 (Excerpta Medica, 1990, 211) were carried out at 0.5 nM. Non specific binding was determined in the presence of 10 uM of naloxone. Binding data were expressed as percentage of inhibition and fitted the following equation: f(x)=100·X/(IC50+X) where X is the cold drug concentration value. The IC50 values obtained were used to calculate the inhibitory constants (Ki) accordingly to the Cheng and Prusoff relation (Biochem. Pharmacol., 1973, 22, 3099).

A further experiment deals with T2, human mu opioid receptor (Homo sapiens, UniProt P35372).
T2 construct: expressed in transfected cells; membranes prepared
T2 sequence (P35372 whole entry): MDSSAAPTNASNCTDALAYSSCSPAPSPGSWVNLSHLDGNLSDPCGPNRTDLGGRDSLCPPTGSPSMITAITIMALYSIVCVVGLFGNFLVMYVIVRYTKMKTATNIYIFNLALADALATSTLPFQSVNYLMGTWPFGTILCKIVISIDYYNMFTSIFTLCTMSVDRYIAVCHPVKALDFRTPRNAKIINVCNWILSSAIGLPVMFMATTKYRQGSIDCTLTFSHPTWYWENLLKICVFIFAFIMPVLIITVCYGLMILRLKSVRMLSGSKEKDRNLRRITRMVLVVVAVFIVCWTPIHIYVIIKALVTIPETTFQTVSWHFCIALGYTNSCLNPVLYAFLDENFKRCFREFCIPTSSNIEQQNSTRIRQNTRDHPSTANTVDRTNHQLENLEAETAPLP
Put plainly: radioligand binding assay, [3H]-DAMGO, cloned human mu opioid receptor in CHO cells. To be noted: ratio of Ki at mu ([3H]-DAMGO 0.5 nM) to Ki at delta. How it is done: as §1, §2, §3

T1 sequence (P41143 whole entry): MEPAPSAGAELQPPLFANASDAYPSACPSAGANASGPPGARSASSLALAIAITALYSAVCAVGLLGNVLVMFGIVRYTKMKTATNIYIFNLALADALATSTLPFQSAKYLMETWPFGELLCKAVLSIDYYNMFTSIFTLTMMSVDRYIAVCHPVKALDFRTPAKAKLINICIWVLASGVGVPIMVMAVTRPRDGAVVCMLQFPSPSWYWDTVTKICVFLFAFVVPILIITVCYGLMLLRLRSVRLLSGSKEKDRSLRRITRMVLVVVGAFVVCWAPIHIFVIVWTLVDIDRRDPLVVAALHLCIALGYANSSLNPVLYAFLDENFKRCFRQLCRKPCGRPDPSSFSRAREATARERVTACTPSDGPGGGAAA

Consider `COc1ccc2c3c1O[C@H]1c4[nH]c(C(=O)N5C(C)(C)CCCC5(C)C)c(C)c4C[C@H]4[C@@H](C2)N(C)CC[C@]314` [Example 1], for which the Ki (as a rule, the equilibrium dissociation constant of an inhibitor or competing ligand from its target) in experiment [1] came out at 0.3 nM. Also, at human mu opioid receptor, the “Ki mu/Ki delta” value is on record as 267.
`COc1ccc2c3c1O[C@H]1c4[nH]c(C(=O)N5CCC(C(=O)c6ccccc6)CC5)c(C)c4C[C@H]4[C@@H](C2)N(C)CC[C@]314` [Example 6]: the inhibitory constant (Ki) in experiment [1] was found to be 1.4 nM. Further, the “Ki mu/Ki delta” value on human mu opioid receptor was found to be 220.
